Source: patent US20090054376A1, “BENZOFURAN DERIVATIVES WITH THERAPEUTIC ACTIVITIES” (Pharmos Corporation, priority 2005, published 2009)

Columns and labels:
IL-1β = experiment: Gene expression in LPS activated RAW 264.7 macrophages, IL-1β; type: cell-based, mouse; settings: RAW 264.7, 10 μM, LPS 1 μg/ml, RNA 3 hrs after activation, vs vehicle treated activated cells
Experimental: (§1) RAW 264.7 macrophages, a mouse cell line (ATCC # TIB 71), were grown in Dulbecco's modified Eagle's medium (DMEM) with 4 mM L-glutamine adjusted to contain 1.5 g/L sodium bicarbonate, 4.5 g/L glucose, and 10% heat inactivated fetal bovine serum. Cells were grown in tissue culture flasks and seeded at appropriate density into 6 wells tissue culture plates. Four million Raw cells in half a milliliter were stimulated with 1 μg/ml LPS E. coli 055:B5 (DIFCO Laboratories). The mouse macrophages were pre-treated for one hour with controls or 10 μM of test compounds, and later on activated with LPS. RNA samples were extracted from the cells 3 hrs after activation and gene expression levels were analyzed by real-time RT-PCR. In parallel, supernatants were collected and secretion of inflammatory mediators was analyzed using ELISA techniques according to the instructions of the kit manufacturer.
(§2) Total RNA is prepared using SV total RNA isolation system (Promega). The cells were homogenized in lysis buffer. The lysates were transferred to an RNA isolation column, treated with DNAse, washed and eluted according to kit instructions. RNA concentrations were determined using GeneQuant II (Pharmacia-Amersham). Complementary DNA (cDNA) was synthesized from total RNA using […] II reverse transcriptase (Life Technologies). 2 μg of total RNA were combined with an oligo (dT)15 primer, 0.5 mM dNTP mix, 8 units of reverse transcriptase and other reaction components up to a final volume of 20 μl, according to the kit instructions. The reaction mixture was incubated at 42° C. for 45 min and inactivated at 70° C. for 15 minutes. Quantitative real-time RT-PCR included 1 μl of the cDNA, 300 nM of the appropriate forward and reverse primers (according to the gene monitored) and 7.5 μl of the reaction mix containing buffer, nucleotides, Taq polymerase and SYBER green (SYBER Green master mix, Applied Biosystems), in a total reaction volume of 15 μl. Gene amplification was obtained using the GeneAmp 5700 sequence detection system (Applied Biosystems). Amplification included one stage of 10 minutes at 95° C. followed by 40 cycles of a 2-steps loop: 20 seconds at 95° C., and 1 minute at 60° C. During each annealing step, the amount of the amplified product was measured by the fluorescence of the double strand DNA binding dye, SYBER Green. The cycle of threshold (CT), representing the PCR cycle at which an increase in fluorescence above a baseline signal can be first detected, was determined for each product. A delay of one PCR cycle in the CT is translated into a two-fold decrease in starting template molecules and vice versa. The changes in the CT of the specific gene product were normalized to the changes in the CT of housekeeping cyclophilin or GAPDH as reference genes. Results were expressed as fold increase of gene expression in treated or untreated activated cells above the resting cells, after normalization to cyclophilin or GAPDH. Cells were also tested for viability to confirm that any effect on gene expression was indeed due to modulation of transcription of a specific target and not to cytoxicity.
(§3) Results were further expressed as percent inhibition of gene expression in compound treated activated cells over vehicle “treated” activated cells. Since the modulation of IL-10 and TNF-α gene expression by the compounds of the invention is relatively minor, it is not reported. […] Inhibition above 50% was considered significant.

iNOS = experiment: Gene expression in LPS activated RAW 264.7 macrophages, iNOS; type: cell-based, mouse; settings: RAW 264.7, 10 μM, LPS 1 μg/ml, RNA 3 hrs after activation, vs vehicle treated activated cells
Experimental: as §1, §2, §3

MCP-1 = experiment: Gene expression in LPS activated RAW 264.7 macrophages, MCP-1; type: cell-based, mouse; settings: RAW 264.7, 10 μM, LPS 1 μg/ml, RNA 3 hrs after activation, vs vehicle treated activated cells
Experimental: as §1, §2, §3

[1] = tested on: CB1 related cannabimimetic activity; experiment: Safety: body temperature, catalepsy, spontaneous locomotor activity, elevated plus maze, sensitivity to touch; type: in vivo, ICR male mice; settings: 2 mg/kg i.v.
Experimental: In the present study, impact of compounds of the invention on the central nervous system was measured by monitoring the body temperature, catalepsy and spontaneous locomotor activity of rodents. These activities are part of the Tetrad assays which are indicative, if all parameters are affected, of CB1 mediated activity. In addition, lack of CNS psychomimetic effect was assessed in the elevated plus maze model. Finally, sensitivity to touch was determined in order to evaluate peripheral CB1 related activity.
ICR male mice (average body weight 25 g, Harlan, Israel) were administered the compounds of the invention i.v. at a dose of 2 mg/kg and at a volume dose of 5 ml/kg. The psychoactive cannabinoid HU-210 was used as positive control at the 100-fold lower dose of 0.02 mg/kg i.v. The following measurements were made starting 15 minutes after compound administration. All tests were completed for each animal within approximately 10 minutes. Rectal temperature was monitored using a thermistor probe (YSI model 400, USA). Spontaneous locomotion was assessed using the open field methodology. The number of squares crossed by the animals were recorded and analyzed during a period of three minutes. At the end of the open field test, the animals were tested for catalepsy symptoms. This was carried out by gently forcing the animal to stand on its hind paws when its front paws are holding on an elevated beam. The time for the animal to step down of the beam was measured in seconds. A normal animal withdraws the beam immediately whereas cataleptic animal tend to stay on the beam. The longer the animal stays leaning on the beam, the more cataleptic the animal is. The behavior of the animals was then assessed in the elevated plus maze. The elevated plus maze consists of two open arms and two arms that are enclosed by high walls (arms 30×10 cm, wall height 20 cm). The elevated plus maze is usually elevated 80 cm above the floor. The mouse is placed on the maze head facing an open arm, and the time spent in the different compartments of the maze (open arms, closed arms and central area) are measured for the next 5 minutes. Results are expressed as percent of the time spent in the open arms, normal animals preferring to stay in the closed arms of the maze. Finally, animals were gently touched by an observer blinded for the treatment group and their sensitivity scored according to the following scale: 0 not sensitive, 1 sensitive and 2 highly sensitive. Results are expressed as average±SEM. At the end of the study, the animals were euthanized.

| SMILES | Percent inhibition of gene expression, IL-1β (IL-1β) | Percent inhibition of gene expression, iNOS (iNOS) | Percent inhibition of gene expression, MCP-1 (MCP-1) | adverse cannabimimetic activities in any of the parameters monitored [1] | decrease of number of squares crossed ([1]; non-significant) | number of squares crossed (spontaneous locomotor activity) ([1]; period of three minutes, vehicle 75.63±6.24) |
| --- | --- | --- | --- | --- | --- | --- |
| CCCCCCC(C)(C)c1cc(O)c2c(c1)OC1C(O)CCCCC21 (stereo not drawn) [Compound C7S-2, 2-(1,1-dimethylheptyl)-5,6,7,8,9,9a-hexahydro-4bH-10-oxa-benzo[α]azulen-4,9-diol] | NO (NO indicates that the compound tested did not significantly affect the transcription of the gene assessed and that its activity is comparable to vehicle, within ±20% from this control) | NO (NO indicates that the compound tested did not significantly affect the transcription of the gene assessed and that its activity is comparable to vehicle, within ±20% from this control) | NO (NO indicates that the compound tested did not significantly affect the transcription of the gene assessed and that its activity is comparable to vehicle, within ±20% from this control) | – | – | – |
| CCCCCCC(C)(C)c1cc(O)c2c3c(oc2c1)C(=O)CCC3(C)C [Compound C6M-9, 7-(1,1-Dimethylheptyl)-9-hydroxy-1,1-dimethyl-2,3-dihydro-1H-dibenzofuran-4-one] | NO (NO indicates that the compound tested did not significantly affect the transcription of the gene assessed and that its activity is comparable to vehicle, within ±20% from this control) | 32% | 37% | None | – | – |
| CCCCC(C)(C)c1cc(O)c2c(c1)OC1C2CCC(C)(C)C1O (centres unmarked) [Compound C6S-7, 3-(1,1-dimethylpentyl)-7,7-dimethyl-5a,6,7,8,9,9a-hexahydro-dibenzofuran-1,6-diol] | – | – | – | None | – | – |
| CCCCC(C)(C)c1cc(O)c2c(c1)OC1CCCCC21 (centres unmarked) [Compound C6S-3, 3-(1,1-dimethylpentyl)-5a,6,7,8,9,9a-hexahydro-dibenzofuran-1-ol] | 74% | 68% | 55% | None | 13% | 65.80±7.04 |
| CCCCCCC(C)(C)c1cc(O)c2c(c1)OC1(C)CCCC21 (stereo not drawn) [Compound C5S-2, 6-(1,1-dimethylheptyl)-8a-methyl-2,3,3a,8a-tetrahydro-1H-8-oxa-cyclo-penta[α]inden-4-ol] | 81% | NO (NO indicates that the compound tested did not significantly affect the transcription of the gene assessed and that its activity is comparable to vehicle, within ±20% from this control) | NO (NO indicates that the compound tested did not significantly affect the transcription of the gene assessed and that its activity is comparable to vehicle, within ±20% from this control) | None | – | – |
| CCCCCCC(C)(C)c1cc(O)c2c(c1)OC1C=CCCC21 (centres unmarked) [Compound C6S-2, 3-(1,1-Dimethylheptyl)-5a,8,9,9a-tetrahydro-dibenzofuran-1-ol] | 58% | 23% | 44% | None | – | – |
| CCCCC(C)(C)c1cc(O)c2c(c1)OC1(C)CCCC21 (stereo not drawn) [Compound C5S-1, 6-(1,1-dimethylpentyl)-8a-methyl-2,3,3a,8a-tetrahydro-1H-8-oxa-cyclopenta[α]inden-4-ol] | 47% | 37% | NO (NO indicates that the compound tested did not significantly affect the transcription of the gene assessed and that its activity is comparable to vehicle, within ±20% from this control) | None | – | – |
